Source: patent US20100143440A1, “UL97 INHIBITORS FOR TREATMENT OF PROLIFERATIVE DISORDERS” (The UAB Research Foundation, priority 2007, published 2010)
Read-outs that look alike come from different tables or passages of the source.

Assays:
[1] = target: T1, HHV-6B U69 protein kinase (Human herpesvirus 6B, UniProt P52446); test: Surrogate assay: U69 kinase dependent inhibition of pp65-GFP nuclear aggregation; assay type: cell-based; conditions: 15 μM MBV, FIG. 8; listed as MBV
T1 construct: expressed in transfected cells
Source text: This assay is similar to that reported previously for UL97 (Prichard, M. N., et al., 2005. Human cytomegalovirus UL97 Kinase is required for the normal intranuclear distribution of pp65 and virion morphogenesis. J Virol 79:15494-502). […] Inhibition of aggregation was kinase dependent since the U69B K219M mutation, which eliminates an essential lysine, is incapable of inhibiting aggregation.

HHV-6 = conditions: Williams-Aziz et al. 2005; cited from earlier work
GS strain of HHV-6A = test: Efficacy against HHV-6A in HSB-2 cells with reduced serum; assay type: cell-based
Method: The activity of MBV was evaluated against the GS strain of HHV-6A in HSB-2 cells with reduced serum to slow the growth of lymphocytes.

pUL97 = target: T2, pUL97 (Human cytomegalovirus, UniProt P16788); test: Number of PML bodies in COS7 cells expressing pUL97; assay type: cell-based, HCMV; conditions: FIG. 3F
T2 construct: expressed in transfected cells; host or cells: COS7 cells (transient co-transfection)
Method: Indirect immunofluorescence microscopy. Cells expressing proteins from transfected plasmids were visualized by methods published previously (Prichard et al., J. Virol. 79:15494-502 (2005)). Briefly, monolayers of HFF cells were grown on 12 mm diameter coverslips in 24-well plates. Transfected cells were fixed for 15 minutes with freshly prepared 2% formaldehyde in phosphate buffered saline (PBS), washed two times with PBS, and membranes were permeabilized with 0.2% Triton X-100 in PBS for 15 minutes. Monoclonal antibody to the V5 epitope tag was purchased from Invitrogen (Carlsbad, Calif.). Monoclonal antibodies to IE1 (63-27) and ppUL44 (28-21) were generously provided by Bill Britt and were used as culture supernatants with goat anti-mouse secondary antibodies conjugated to FITC or Texas Red (Southern Biotechnology, Birmingham, Ala.).
PML bodies are affected by the kinase. Nuclear aggresomes form in a dynamic microtubule dependent process that initiates with fusion of small aggregations located at or near PML bodies. To determine the effect of pUL97 on these structures, this and other proteins were expressed in COST cells and visualized PML bodies with an antibody to SP100, which is a marker of these domains. […] Their number was also unaffected by the expression of pp71, however it colocalized with these structures and is consistent with previous reports. […]

UL97 kinase = target: T3, UL97 kinase (Human cytomegalovirus, UniProt P16788); test: UL97 kinase inhibition of pp71 aggregation in cotransfected COS7 cells; assay type: cell-based, HCMV
T3 construct: expressed in transfected cells; host or cells: COS7 cells (transient co-transfection)

hyperphosphorylated Rb = test: Western blot of Rb and p53 in HCMV infected HFF cells; assay type: cell-based, human
Method: Polyacrylamide gels and western blotting. HFF cells were infected at a multiplicity of infection of 2 PFU/cell and at 24 and 72 hours following infection they were disrupted in 2× Lamelli buffer (Sigma-Aldrich, St. Louis, Mo.) and separated on 10%, 7.5%, or 5% polyacrylamide gels depending on the size of the protein to be resolved (BioRad, Hercules, Calif.). Separated proteins were transferred to PVDF membranes (Roche Applied Science, Indianapolis, Ind.) in a buffer containing 28 mM Tris, 39 mM glycine, 0.0375% SDS and 20% methanol in a semi dry transfer cell (BioRad, Hercules, Calif.). Membranes were blocked in 1% blocking buffer (Roche Applied Science, Indianapolis, Ind.), incubated with primary antibodies overnight at 4° C. and washed extensively with PBS supplemented with 0.02% tween 20. A secondary antibody conjugated to alkaline phosphatase (Southern Biotechnology Associates, Birmingham, Ala.) and CDP* (Roche Applied Science, Indianapolis, Ind.) were used to detect the bound primary antibody. Monoclonal antibodies used in these studies were directed against PML (H-238) (Santa Cruz Biotechnology, Santa Cruz, Calif.), DAXX (Upstate Cell Signaling Solutions, Tamecula, Calif.), p53, retinoblastoma, β-tubulin, CREB binding protein (CBP) (Chemicon International, Tamecula, Calif.), and both V5 and Xpress (Invitrogen, Carlsbad, Calif.).
UL97 kinase activity is required for the hyperphosphorylation of Rb. […] Proteins in this complex were examined by Western blots using samples derived from HFF cells that were uninfected, infected with AD169 a recombinant virus (RCΔA97) containing a large deletion in UL97 at a multiplicity of infection of 3 PFU/cell. Some of the infections were conducted in the presence of MBV to confirm that the observed changes were due to a deficiency of its kinase activity. […] In cells infected with the wt virus, increases in levels of p53 were observed (FIG. 4 lanes 9-12), but this increase was unaffected by the deletion of the UL97 open reading frame or treatment with maribavir. Also consistent with this previous report was an increase of hyperphosphorylated Rb at both 24 and 72 hours following infection (FIG. 4, lanes 3, 9). […] A previous report has shown that pp71 directs the proteasome dependent degradation of hypophosphorylated Rb, however observations presented here are distinct in that the hyperphosphorylation and stabilization of this form of Rb is inefficient in the absence UL97 kinase activity.

HCMV UL97 kinase = target: T4, HCMV UL97 kinase (Human cytomegalovirus, UniProt P16788); test: Surrogate assay: UL97 kinase dependent inhibition of pp65-GFP nuclear aggregation; assay type: cell-based
T4 construct: expressed in transfected cells; host or cells: COS7 cells (transient co-transfection)

## CC(C)Nc1nc2cc(Cl)c(Cl)cc2n1[C@H]1O[C@@H](CO)[C@H](O)[C@@H]1O [maribavir]
[1]
  Effect on ability of U69 to inhibit pp65-GFP aggregation: reduces the ability of UL97 and U69 to inhibit aggregation
HHV-6
  Inhibition of HHV-6 replication: poor inhibitor
GS strain of HHV-6A; HSB2, GS strain of HHV-6A, HSB-2 cells, reduced serum, read-out: EC50 values under conditions of reduced serum
  EC50: 9 to 30 µM
GS strain of HHV-6A; HSB2, HHV-6A in HSB-2 cells, 2% FBS, read-out: EC50
  EC50: 30 µM
GS strain of HHV-6A; HSB2, HHV-6A in HSB-2 cells, 5% FBS, read-out: EC50
  EC50: 9 µM
GS strain of HHV-6A; HSB2, HHV-6A in HSB-2 cells, 10% FBS, read-out: EC50
  EC50: > 50 µM
pUL97
  Effect on pUL97 reduction of the number of PML bodies: neither the K355M mutant, or pUL97 in the presence of maribavir could affect their numbers
UL97 kinase
  Effect on kinase inhibition of pp71 aggregation: unable to inhibit the aggregation of pp71 in the presence of MBV
Hyperphosphorylated Rb; HFF cells infected with UL97 deletion virus RCΔ97
  Levels of hyperphosphorylated Rb: relatively unaffected
Hyperphosphorylated Rb; HFF cells infected with wt virus
  Increase in levels of p53: unaffected
Hyperphosphorylated Rb; HFF cells infected with wt virus AD169, 24 hours post infection
  Increase of hyperphosphorylated Rb: did not occur
Hyperphosphorylated Rb; HFF cells infected with wt virus AD169, 72 hours after infection
  Levels of hyperphosphorylated Rb: significantly reduced
Hyperphosphorylated Rb; infected cells, 24 and 72 hours, FIG. 4 legend
  Hyperphosphorylated forms of Rb: reduced
HCMV UL97 kinase; 15 μM MBV, FIG. 8, listed as MBV
  Effect on ability of UL97 to inhibit pp65-GFP aggregation: reduces the ability of UL97 and U69 to inhibit aggregation
HCMV UL97 kinase; COS7 cells co-expressing pp65-GFP and UL97
  Effect on inhibition of pp65 aggregate formation by the kinase: antagonized
